This note sets out measurements from patent US20170242015A1, “MAP3K8 AS A MARKER FOR SELECTING A PATIENT AFFECTED WITH AN OVARIAN CANCER FOR A TREATMENT WITH A MEK INHIBITOR” (INSTITUT CURIE, priority 2014, published 2017).

Experiment [1] has as its system SKOV3 cells. The experiment is described as follows: Growth kinetics of SKOV3 cells (living cells counted by trypan blue exclusion). The class given is cell-based, human. The method, then:
(§1) The human epithelial ovarian cancer cell line SKOV3 and the SKOV3 stable cell lines were propagated in DMEM (Gibco) supplemented with 10% fetal bovine serum (FBS, PAA), penicillin and streptomycin (Gibco). 1 μg/mL puromycin was added only for SKOV3 stable cell lines. For SKOV3 stable cell lines, 10% serum stimulation was performed after overnight serum starvation for the indicated times. SKOV3 cells were plated and immediately treated or not with 5 μM MAP3K8 kinase inhibitor (KI, Calbiochem #616373) for the indicated times. The number of living cells was measured by trypan blue exclusion using Vi-Cell analyzer (Beckman Coulter). Cell cycle distributions were performed on ethanol-fixed cells, stained with propidium iodide and analyzed by flow cytometry. Flow cytometry data were acquired using CellQuest Pro (Becton Dickinson) software on the FACS LSRII machine (Becton Dickinson) and were analyzed using ModfitLT (Verity) software.

The subject of experiment [2] is SKOV3 cells. The experiment is described as follows: Cell cycle analysis by flow cytometry (propidium iodide). The class given is cell-based, human. Conditions: KI treatment vs untreated control cells. The method, then: as §1
For experiment [3], the system named is SKOV3 cells. The experiment in a line: Transwell migration assay. The class given is cell-based, human. The following applies: KI treatment, 5 h. The method, then: (§2) 12 wells cell culture insert, and 24 wells Transwell BioCoat™ growth factor reduced Matrigel™ invasion chambers (BD Biosciences, […]) were used for migration and invasion assays, respectively. After overnight serum starvation, cells were plated to the upper side of the Transwell device, at least in duplicates, in serum free medium, while the lower well contained regular 10% FBS culture medium in order to create an FBS gradient. The inventors plated 80,000 cells for migration assay and ended the experiment 5 h later. For invasion assay, the inventors plated 50,000 and stopped the experiment 24 h later. At the end of the experiment, the remaining cells in the upper side of the Transwell device were removed. Migrating and invading cells at the bottom side of the Transwell device were fixed and stained with crystal violet for 30 minutes and then counted in the central field (×2.5 objective, Zeiss Axioplan microscope, AxioCamERc 5s).

Experiment [4] has as its system SKOV3 cells. The experiment in a line: Transwell BioCoat Matrigel invasion assay. Conditions: KI treatment, 24 h. The class given is cell-based, human. Here is the method: as §2
Experiment [5] deals with MEK. The experiment in a line: Western blot of serum-induced MEK phosphorylation in SKOV3 cells. The class given is cell-based, human. The following applies: SKOV3, KI 5 μM or 10 μM 1 h prior to 15 min 10% serum stimulation. Here is the method:
(§3) After overnight serum starvation (—FBS), SKOV3 cells and SKOV3 stable cell lines were stimulated with 10% serum for 15 minutes (+FBS). SKOV3 cell line was treated or not with 5 μM or 10 μM MAP3K8 kinase inhibitor as indicated (KI_5 μM or KI_10 μM) for 1 h prior to serum stimulation. After treatment, cells were washed once with cold PBS and scraped on ice with lysis buffer (50 mM Tris-HCl pH 7.5, 1 mM EDTA, 1 mM EGTA, 1% triton X-100, 1 mM Na3VO4, 50mMNaF, 0.27M sucrose, 0.1% β-mercaptoethanol) supplemented with EDTA-free protease inhibitor cocktail tablet (Roche #1836170). For immunoprecipitation (IP), 4×10^6 SKOV3 cells were plated into 10 cm petri dish. […] The protein concentration of the supernatant was determined using the Bio-Rad Dc Protein Assay Kit according to the manufacturer's instructions (Bio-Rad Laboratories). […]
(§4) For western blot analysis, samples were loaded onto homemade or precast 10% polyacrylamide gels (Invitrogen). […] Specific binding of antibodies was detected using appropriate peroxidase-conjugated secondary antibodies (Jackson ImmunoResearch Laboratories #115-035-003 and 115-035-045), and was visualized by enhanced chemiluminescence detection (Western Lightning® Plus-ECL, PerkinElmer). […]
For orientation: In western blotting, separated proteins are transferred to a membrane and probed.

In experiment [6] the test system is ERK. The experiment is described as follows: Western blot of serum-induced ERK phosphorylation in SKOV3 cells. The following applies: SKOV3, KI 5 μM or 10 μM 1 h prior to 15 min 10% serum stimulation. The class given is cell-based, human. Here is the method:
as §3, §4

In experiment [7] the test system is p38MAPK. The experiment in a line: Western blot of serum-induced p38MAPK phosphorylation in SKOV3 cells. The class given is cell-based, human. Conditions: SKOV3, KI 5 μM or 10 μM 1 h prior to 15 min 10% serum stimulation. The method, then:
as §3, §4

In experiment [8] the test system is NF-κB. The experiment is described as follows: Western blot of serum-induced NF-κB phosphorylation in SKOV3 cells. The class given is cell-based, human. The following applies: SKOV3, KI 5 μM or 10 μM 1 h prior to 15 min 10% serum stimulation. Here is the method: as §3, §4
Experiment [9] has as its system JNK. The experiment in a line: Western blot of JNK phosphorylation in SKOV3 cells. The class given is cell-based, human. Conditions: SKOV3, KI 5 μM or 10 μM 1 h prior to 15 min 10% serum stimulation; not significant. The method, then:
as §3, §4

Experiment [10] concerns high-MAP3K8 PDX model. The experiment in a line: Efficacy study in patient-derived xenograft, high-MAP3K8 PDX model. Conditions: for tumor growth inhibition (TGI): per os 5 times a week for 4 weeks, AZD6244 50 mg/kg, MEK162 25 mg/kg; for tumor growth: treated vs untreated. The class given is in vivo, mouse. The method, then:
(§5) Grafting experiments were performed by subcutaneous injection of 2.7×10^6 exponentially growing SKOV3 stable cell lines into each flank of 6-week-old female Swiss nude mice (at least five mice per group). Patient derived xenograft (PDX) models of EOC tumors were established at the Curie Institute with patient consent (Paris, France). For efficacy studies in PDX models, at least 8 mice per group were treated per os 5 times a week for 4 weeks either left untreated (Ctrl) or treated with the following MEK inhibitors AZD6244 at 50 mg/kg, (Selleckchem #S100817) or MEK162 25 mg/kg (Active Biochem #A-1128) both diluted into 2% DMSO, 10% 2-Hydroxypropyl-beta-cyclodextrin, 5% glucose in PBS. Tumor growth was evaluated by measuring two perpendicular diameters of tumors with a caliper twice a week. Individual tumor volumes were calculated as (V)=a×b2/2, with a being the major diameter, and b the minor one. For each tumor, V was reported to the initial volume as relative tumor volume (RTV). Means (and s.e.m) of RTV in the same treatment group were calculated, and growth curves were established as a function of time. The tumor growth inhibition (TGI) was calculated using the following formula: 100−100×([…]). Curie Institute ethical committee approved all experiments.
In general terms: In xenograft studies the graft and the host belong to different species.

Experiment [11] has as its system low-MAP3K8 PDX model. The experiment is described as follows: Efficacy study in patient-derived xenograft, low-MAP3K8 PDX model. The following applies: for tumor growth inhibition (TGI): per os 5 times a week for 4 weeks, AZD6244 50 mg/kg, MEK162 25 mg/kg; for tumor growth: treated vs untreated. The class given is in vivo, mouse. The method, then: as §5
Experiment [12] has as its system high-MAP3K8 PDX model. The experiment is described as follows: Lung metastasis detection in PDX by RT-qPCR for human Alu sequences. The class given is in vivo, mouse. The following applies: compared to low-MAP3K8 PDX model. For orientation: Real-time PCR tracks product formation cycle by cycle.

As for `N#Cc1cnc2cnc(NCc3cccnc3)cc2c1Nc1ccc(F)c(Cl)c1` [KI], in experiment [1] (5 μM KI vs untreated), the “total number of cells” value is recorded as “reduced the total number of cells”. The cell viability entry in experiment [1] (KI treatment) was “without any impact on cell viability”. The cell doubling time entry in experiment [1] (KI treatment vs untreated) is on record as “increase in cell doubling time”. The “percentage of cells in G1 phase” value in experiment [2] is reported as “significant increase”. In [3], the cell migration result was “significantly reduced cell migration”. In addition, the cell invasion result in experiment [4] is on record as “inhibited”. In experiment [5], the “serum-induced MEK phosphorylation” value is given as “significantly reduced”. In addition, the “serum-induced ERK phosphorylation” value in [6] was “significantly reduced”. Also, the “serum-induced p38MAPK phosphorylation” value in experiment [7] was “not affected”. In addition, the “serum-induced NF-κB phosphorylation” value in experiment [8] is recorded as “not affected”. For the same compound, in experiment [9], the JNK phosphorylation entry was “slight decrease”.

In the case of `Cn1cnc2c(F)c(Nc3ccc(Br)cc3Cl)c(C(=O)NOCCO)cc21` [AZD6244], the “tumor growth inhibition (TGI)” value is given as approximately 60% in experiment [10] and 22% in [11]. Moreover, the values for the tumor growth result in [10] and in experiment [11] were “markedly reduced tumor growth” and “much less impact”, respectively. In addition, the lung metastatic incidence entry in experiment [12] is on record as “significantly reduced”.

On to `Cn1cnc2c(F)c(Nc3ccc(Br)cc3F)c(C(=O)NOCCO)cc21` [MEK162], for which the figures for the “tumor growth inhibition (TGI)” value in experiment [10] and in experiment [11] were approximately 60% and 22%, respectively. Moreover, the tumor growth entry in experiment [10] is reported as “markedly reduced tumor growth”; in experiment [11] it was “much less impact”. Moreover, in experiment [12], the lung metastatic incidence entry was “significantly reduced”.
